Assay results: PubChem BioAssay AID1963865 (Molecular Pharmacology Branch, DTP, NCI, 2024)

Test system: KRAS PDC multicell spheroid viability
Assay: Anticancer human tumor 825966-067-R-J1-PDC patient-derived colon carcinoma cell line growth inhibition [KRAS2]
Settings: for IC50: curve of first compound; for viability, T/C: stronger effect = lower value
How it was run: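 KRAS-mutant tumor cells were grown as spheroids with HUVEC endothelial cells and human MSCs as stroma. Targeted agents were tested alone and with KRAS pathway inhibitors. Doses started at or near clinical Cmax, or 10 microM, descending half-log.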

[1] = second compound 0.1 µM, first compound 0.0316 µM
[2] = second compound 0.1 µM, first compound 0.1 µM
[3] = second compound 0.1 µM, first compound 0.316 µM
[4] = second compound 0.1 µM, first compound 1 µM
[5] = second compound 0.1 µM, first compound 3.16 µM
[6] = second compound 0.1 µM, first compound 10 µM
[7] = second compound 0.316 µM, first compound 0.0316 µM
[8] = second compound 0.316 µM, first compound 0.1 µM
[9] = second compound 0.316 µM, first compound 0.316 µM
[10] = second compound 0.316 µM, first compound 1 µM
[11] = second compound 0.316 µM, first compound 3.16 µM
[12] = second compound 0.316 µM, first compound 10 µM
[13] = second compound 1 µM, first compound 0.0316 µM
[14] = second compound 1 µM, first compound 0.1 µM
[15] = second compound 1 µM, first compound 0.316 µM
[16] = second compound 1 µM, first compound 1 µM
[17] = second compound 1 µM, first compound 3.16 µM
[18] = second compound 1 µM, first compound 10 µM
[19] = second compound 3.16 µM, first compound 0.0316 µM
[20] = second compound 3.16 µM, first compound 0.1 µM
[21] = second compound 3.16 µM, first compound 0.316 µM
[22] = second compound 3.16 µM, first compound 1 µM
[23] = second compound 3.16 µM, first compound 3.16 µM
[24] = second compound 3.16 µM, first compound 10 µM
[25] = second compound 10 µM, first compound 0.0316 µM
[26] = second compound 10 µM, first compound 0.1 µM
[27] = second compound 10 µM, first compound 0.316 µM
[28] = second compound 10 µM, first compound 1 µM
[29] = second compound 10 µM, first compound 3.16 µM
[30] = second compound 10 µM, first compound 10 µM
[31] = second compound 0.1 µM, first compound 0.000316 µM
[32] = second compound 0.1 µM, first compound 0.001 µM
[33] = second compound 0.1 µM, first compound 0.00316 µM
[34] = second compound 0.1 µM, first compound 0.01 µM
[35] = second compound 0.316 µM, first compound 0.000316 µM
[36] = second compound 0.316 µM, first compound 0.001 µM
[37] = second compound 0.316 µM, first compound 0.00316 µM
[38] = second compound 0.316 µM, first compound 0.01 µM
[39] = second compound 1 µM, first compound 0.000316 µM
[40] = second compound 1 µM, first compound 0.001 µM
[41] = second compound 1 µM, first compound 0.00316 µM
[42] = second compound 1 µM, first compound 0.01 µM
[43] = second compound 3.16 µM, first compound 0.000316 µM
[44] = second compound 3.16 µM, first compound 0.001 µM
[45] = second compound 3.16 µM, first compound 0.00316 µM
[46] = second compound 3.16 µM, first compound 0.01 µM
[47] = second compound 10 µM, first compound 0.000316 µM
[48] = second compound 10 µM, first compound 0.001 µM
[49] = second compound 10 µM, first compound 0.00316 µM
[50] = second compound 10 µM, first compound 0.01 µM
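Also: spheroids exposed to compounds for 7 days.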
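For viability, T/C in this document: 100% = DMSO vehicle control viability.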

Structure (SMILES)	IC50 (second compound 0.1 µM) [nM]	IC50 (second compound 0.316 µM) [nM]	IC50 (second compound 1 µM) [nM]	IC50 (second compound 3.16 µM) [nM]	IC50 (second compound 10 µM) [nM]	viability, T/C [1] [%]	viability, T/C [2] [%]	viability, T/C [3] [%]	viability, T/C [4] [%]	viability, T/C [5] [%]	viability, T/C [6] [%]	viability, T/C [7] [%]	viability, T/C [8] [%]	viability, T/C [9] [%]	viability, T/C [13] [%]	viability, T/C [14] [%]	viability, T/C [19] [%]	viability, T/C [20] [%]	viability, T/C [25] [%]	viability, T/C [26] [%]	further results
CC(C)NCC(C(=O)N1CCN(c2ncnc3c2C(C)CC3O)CC1)c1ccc(Cl)cc1 (stereo not given) + CNCc1ccccc1-c1csc(C(C)Nc2nc(C)nc3cc(OC)c(OC)cc23)c1	1880	1780	787	32.2	< 31.6	84.8	84.4	89.6	85.3	20.8	7.87	79	110	119	81.6	84.8	50.6	21.1	1.91	1.5	viability, T/C [10]: 69.9%; viability, T/C [11]: 29.2%; viability, T/C [12]: 6.85%; viability, T/C [15]: 97.9%; viability, T/C [16]: 40%; viability, T/C [17]: 14.8%; viability, T/C [18]: 3.31%; viability, T/C [21]: 1.24%; viability, T/C [22]: 0.74%; viability, T/C [23]: 0.68%; viability, T/C [24]: 1.98%; viability, T/C [27]: 0.93%; viability, T/C [28]: 0.3%; viability, T/C [29]: 0.36%; viability, T/C [30]: 0.91%
CC(C)n1nc(-c2ccc3oc(N)nc3c2)c2c(N)ncnc21 + CNCc1ccccc1-c1csc(C(C)Nc2nc(C)nc3cc(OC)c(OC)cc23)c1	> 100	> 100	> 100	1.92	< 0.316	128	154	–	–	–	–	142	109	–	76.4	84.2	12.4	2.02	0.41	0.41	viability, T/C [31]: 126%; viability, T/C [32]: 113%; viability, T/C [33]: 159%; viability, T/C [34]: 185%; viability, T/C [35]: 117%; viability, T/C [36]: 150%; viability, T/C [37]: 172%; viability, T/C [38]: 136%; viability, T/C [39]: 131%; viability, T/C [40]: 135%; viability, T/C [41]: 156%; viability, T/C [42]: 132%; viability, T/C [43]: 66.2%; viability, T/C [44]: 105%; viability, T/C [45]: 22.9%; viability, T/C [46]: 1.2%; viability, T/C [47]: 0.21%; viability, T/C [48]: 0.64%; viability, T/C [49]: 1.75%; viability, T/C [50]: 0.23%
CC1(C)CCC(CN2CCN(c3ccc(C(=O)NS(=O)(=O)c4ccc(NCC5CCOCC5)c([N+](=O)[O-])c4)c(Oc4cnc5[nH]ccc5c4)c3)CC2)=C(c2ccc(Cl)cc2)C1 + CNCc1ccccc1-c1csc(C(C)Nc2nc(C)nc3cc(OC)c(OC)cc23)c1	2180	2190	2050	1550	< 31.6	91.4	106	97.5	92.9	29.4	4.56	94.7	101	95.2	88.5	96.7	45.1	98.6	0.25	0.32	viability, T/C [10]: 104%; viability, T/C [11]: 27.4%; viability, T/C [12]: 2.36%; viability, T/C [15]: 126%; viability, T/C [16]: 132%; viability, T/C [17]: 13.6%; viability, T/C [18]: 2.22%; viability, T/C [21]: 64.8%; viability, T/C [22]: 102%; viability, T/C [23]: 5.49%; viability, T/C [24]: 0.23%; viability, T/C [27]: 1.83%; viability, T/C [28]: 0.35%; viability, T/C [29]: 0.66%; viability, T/C [30]: 0.23%
COc1cc(Nc2ncc3c(n2)-c2ccc(Cl)cc2C(c2c(F)cccc2OC)=NC3)ccc1C(=O)O + CNCc1ccccc1-c1csc(C(C)Nc2nc(C)nc3cc(OC)c(OC)cc23)c1	> 10000	> 10000	> 10000	< 31.6	< 31.6	95.3	178	165	150	167	155	132	145	124	108	123	0.27	2.41	0.16	0.15	viability, T/C [10]: 140%; viability, T/C [11]: 147%; viability, T/C [12]: 134%; viability, T/C [15]: 159%; viability, T/C [16]: 156%; viability, T/C [17]: 142%; viability, T/C [18]: 120%; viability, T/C [21]: 15.8%; viability, T/C [22]: 0.43%; viability, T/C [23]: 0.37%; viability, T/C [24]: 4.13%; viability, T/C [27]: 0.17%; viability, T/C [28]: 0.16%; viability, T/C [29]: 0.17%; viability, T/C [30]: 0.22%
COc1cc2nccc(Oc3ccc(NC(=O)C4(C(=O)Nc5ccc(F)cc5)CC4)cc3)c2cc1OC + CNCc1ccccc1-c1csc(C(C)Nc2nc(C)nc3cc(OC)c(OC)cc23)c1	1740	1730	1880	192	< 31.6	86.2	124	94	91.2	4.92	6.89	74.8	98.7	94	97.9	117	113	59.8	0.28	0.32	viability, T/C [10]: 97.8%; viability, T/C [11]: 3.71%; viability, T/C [12]: 4.44%; viability, T/C [15]: 104%; viability, T/C [16]: 122%; viability, T/C [17]: 0.94%; viability, T/C [18]: 0.47%; viability, T/C [21]: 53.4%; viability, T/C [22]: 1.03%; viability, T/C [23]: 0.6%; viability, T/C [24]: 0.24%; viability, T/C [27]: 0.24%; viability, T/C [28]: 0.18%; viability, T/C [29]: 0.17%; viability, T/C [30]: 0.29%
Cn1ncnc1[C@H]1c2n[nH]c(=O)c3cc(F)cc(c23)N[C@@H]1c1ccc(F)cc1 + CNCc1ccccc1-c1csc(C(C)Nc2nc(C)nc3cc(OC)c(OC)cc23)c1	> 100	> 100	> 100	22.4	< 0.316	58.2	58.3	–	–	–	–	57.3	62.2	–	70	86	37.6	3.27	0.22	0.19	viability, T/C [31]: 77%; viability, T/C [32]: 84.2%; viability, T/C [33]: 76.4%; viability, T/C [34]: 64.5%; viability, T/C [35]: 99.9%; viability, T/C [36]: 75.2%; viability, T/C [37]: 62.5%; viability, T/C [38]: 57.9%; viability, T/C [39]: 85.9%; viability, T/C [40]: 97.9%; viability, T/C [41]: 72%; viability, T/C [42]: 73.5%; viability, T/C [43]: 87.3%; viability, T/C [44]: 78.7%; viability, T/C [45]: 59.9%; viability, T/C [46]: 89.3%; viability, T/C [47]: 0.24%; viability, T/C [48]: 0.26%; viability, T/C [49]: 0.49%; viability, T/C [50]: 0.28%
